Consider 24 molecules from patent US9475814B2, “Chiral N-acyl-5,6,7(8-substituted)-tetrahydro-[1,2,4]triazolo[4,3-a]pyrazines as selective NK-3 receptor antagonists, pharmaceutical composition, methods for use in NK-3 receptor mediated disorders and chiral synthesis thereof” (Euroscreen S.A., priority 2011, dated 2016).

In test [1] the target is T1, human NK-3 receptor (Homo sapiens (Human), UniProt P29371). Nature of the test: 3H-SB222200 binding competition assay with human NK-3 receptor.
Procedure: ^3H-SB222200 Binding Competition Assay with Human NK-3 Receptor
The membranes were incubated with 5 nM ^3H-SB222200(ARC) in a HEPES 25 mM/NaCl 0.1M/CaCl2 1 mM/MgCl2 5 Mm/BSA 0.5%/Saponin 10 μg/ml buffer at pH 7.4 and various concentrations of compounds of the invention. The amount of ^3H-SB222200 bound to the receptor was determined after filtration by the quantification of membrane associated radioactivity using the TopCount-NXT reader (Packard).
The target of test [2] is T1, human NK-3 receptor. Nature of the test: Aequorin functional assay with human NK-3 receptor (antagonist testing vs NKA). It counts as cell-based. Particulars: inhibition of NKA (3 nM, EC80) response, CHO cells expressing human NK3 receptor and apoaequorin.
Another test addresses human NK1 receptor (Homo sapiens (Human), UniProt P25103). Kind of test: Human NK1 [3H] substance P binding assay (selectivity).
A further test deals with human NK2 receptor (Homo sapiens (Human), UniProt P21452). Nature of the test: Human NK2 [125I]-Neurokinin A binding assay (selectivity).
The target in the next test is hERG channel (Homo sapiens (Human), UniProt Q12809). Kind of test: hERG inhibition assay (manual patch-clamp, HEK 293 cells).
The mark [3] stands for this setting: Table 6, membranes of CHO cells expressing human NK3 receptor, 5 nM 3H-SB222200, read-out: Ki.
Where [4] appears, read: Table 7, human NK-3 receptor, read-out: NK3 Ki.
Where [5] appears, read: read-out: NK1 Ki, for the racemate, value measured for the racemate of the numbered compound.
Setting [6] is: read-out: NK2 Ki, for the racemate, value measured for the racemate of the numbered compound.

Where two headings read alike, the source gives them in different places. Bounds are passed on as bounds.

Chain of human NK2 receptor (P21452 whole entry): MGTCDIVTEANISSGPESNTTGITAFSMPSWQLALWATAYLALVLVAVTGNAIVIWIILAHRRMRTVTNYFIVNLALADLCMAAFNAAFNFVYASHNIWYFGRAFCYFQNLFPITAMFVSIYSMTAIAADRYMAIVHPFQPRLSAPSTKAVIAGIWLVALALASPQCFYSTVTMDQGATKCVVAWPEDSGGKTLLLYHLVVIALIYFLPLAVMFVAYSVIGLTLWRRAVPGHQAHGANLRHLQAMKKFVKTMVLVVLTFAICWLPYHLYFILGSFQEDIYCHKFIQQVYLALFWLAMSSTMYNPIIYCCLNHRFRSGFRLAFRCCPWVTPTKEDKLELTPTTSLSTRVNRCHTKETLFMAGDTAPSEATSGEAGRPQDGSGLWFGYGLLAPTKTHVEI
Chain of human NK1 receptor (P25103 whole entry): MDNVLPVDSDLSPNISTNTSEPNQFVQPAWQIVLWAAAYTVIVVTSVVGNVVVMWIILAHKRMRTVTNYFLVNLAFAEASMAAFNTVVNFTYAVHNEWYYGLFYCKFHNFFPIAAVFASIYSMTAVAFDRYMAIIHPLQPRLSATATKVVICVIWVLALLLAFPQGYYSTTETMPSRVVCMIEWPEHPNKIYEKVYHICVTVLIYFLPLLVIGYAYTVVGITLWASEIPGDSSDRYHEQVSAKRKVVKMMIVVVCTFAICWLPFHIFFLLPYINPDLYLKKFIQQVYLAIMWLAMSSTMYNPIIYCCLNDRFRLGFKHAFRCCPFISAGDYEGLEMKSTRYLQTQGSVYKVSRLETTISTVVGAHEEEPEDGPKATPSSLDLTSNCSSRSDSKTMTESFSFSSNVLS
T1 sequence (P29371 whole entry): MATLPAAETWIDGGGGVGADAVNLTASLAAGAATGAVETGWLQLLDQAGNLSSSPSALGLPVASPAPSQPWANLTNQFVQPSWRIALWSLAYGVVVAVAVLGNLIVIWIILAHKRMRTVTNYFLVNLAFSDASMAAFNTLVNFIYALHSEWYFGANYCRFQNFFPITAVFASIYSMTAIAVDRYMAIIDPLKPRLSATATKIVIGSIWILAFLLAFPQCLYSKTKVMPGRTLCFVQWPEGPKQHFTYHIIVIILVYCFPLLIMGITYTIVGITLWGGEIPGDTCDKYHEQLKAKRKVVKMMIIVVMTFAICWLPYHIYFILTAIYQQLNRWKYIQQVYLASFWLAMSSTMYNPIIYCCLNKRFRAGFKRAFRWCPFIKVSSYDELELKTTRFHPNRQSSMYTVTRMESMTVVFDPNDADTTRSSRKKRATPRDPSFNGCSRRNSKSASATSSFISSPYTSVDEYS
Chain of hERG channel (Q12809 whole entry): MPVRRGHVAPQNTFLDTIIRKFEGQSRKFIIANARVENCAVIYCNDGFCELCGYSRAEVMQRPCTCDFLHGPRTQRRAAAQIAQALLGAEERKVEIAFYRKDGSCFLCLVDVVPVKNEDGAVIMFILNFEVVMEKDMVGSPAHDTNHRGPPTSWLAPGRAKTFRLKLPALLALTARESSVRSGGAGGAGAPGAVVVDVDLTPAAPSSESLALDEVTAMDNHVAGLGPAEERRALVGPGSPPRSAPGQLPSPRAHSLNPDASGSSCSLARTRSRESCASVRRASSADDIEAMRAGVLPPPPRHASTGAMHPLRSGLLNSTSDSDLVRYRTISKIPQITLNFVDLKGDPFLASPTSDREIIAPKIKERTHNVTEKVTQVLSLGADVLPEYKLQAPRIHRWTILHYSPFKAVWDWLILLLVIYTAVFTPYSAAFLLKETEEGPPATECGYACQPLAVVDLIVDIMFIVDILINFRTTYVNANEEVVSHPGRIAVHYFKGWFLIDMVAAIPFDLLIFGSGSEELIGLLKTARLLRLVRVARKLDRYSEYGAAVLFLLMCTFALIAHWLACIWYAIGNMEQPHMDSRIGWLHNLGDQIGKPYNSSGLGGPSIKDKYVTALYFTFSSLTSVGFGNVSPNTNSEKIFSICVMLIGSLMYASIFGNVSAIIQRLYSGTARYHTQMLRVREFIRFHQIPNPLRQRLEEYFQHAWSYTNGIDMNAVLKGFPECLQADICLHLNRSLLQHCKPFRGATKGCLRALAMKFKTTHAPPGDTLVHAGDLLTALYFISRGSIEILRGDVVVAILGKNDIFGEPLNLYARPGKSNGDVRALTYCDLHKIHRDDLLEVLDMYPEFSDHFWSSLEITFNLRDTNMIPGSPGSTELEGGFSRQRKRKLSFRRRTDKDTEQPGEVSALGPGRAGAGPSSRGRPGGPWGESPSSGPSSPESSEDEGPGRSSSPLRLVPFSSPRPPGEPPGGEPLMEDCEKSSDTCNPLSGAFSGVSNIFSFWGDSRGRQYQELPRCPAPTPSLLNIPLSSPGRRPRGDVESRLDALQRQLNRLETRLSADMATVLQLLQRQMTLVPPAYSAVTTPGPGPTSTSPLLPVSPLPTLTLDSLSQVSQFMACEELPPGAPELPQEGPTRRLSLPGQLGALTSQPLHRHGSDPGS

On to `Cc1cc(-c2nnc3n2CCN(C(=O)c2ccc(-c4cccs4)cc2)[C@@H]3C)n(C)n1` [Compound 28, (R)-(3-(1,3-dimethyl-1H-pyrazol-5-yl)-8-methyl-5,6-dihydro-[1,2,4]triazolo[4,3-a]pyrazin-7(8H)-yl)(4-(thiophen-2-yl)phenyl)methanone], for which the inhibitory constant (Ki) at human NK-3 receptor [1] (setting [3]) was found to be 68 nM. The molecule also showed an IC50 at human NK-3 receptor [2] of 37 nM.
Turning to `C=Cc1nc(-c2nnc3n2CCN(C(=O)c2ccc(-c4ccccc4)cc2)C3)cs1` [Compound 10, [1,1′-biphenyl]-4-yl(3-(2-vinylthiazol-4-yl)-5,6-dihydro-[1,2,4]triazolo[4,3-a]pyrazin-7(8H)-yl)methanone], the Ki at human NK-3 receptor [1] (setting [3]) stood at 36 nM. The molecule further registered an IC50 against human NK-3 receptor [2] of 20 nM.
Take `C[C@@H]1c2nnc(-c3csc(N(C)C)n3)n2CCN1C(=O)c1ccc(-c2cccs2)cc1` [Compound 17, (R)-(3-(2-(dimethylamino)thiazol-4-yl)-8-methyl-5,6-dihydro-[1,2,4]triazolo[4,3-a]pyrazin-7(8H)-yl)(4-(thiophen-2-yl)phenyl)methanone]: the Ki on human NK-3 receptor [1] (setting [3]) amounted to 7 nM; on human NK-3 receptor [1] (setting [4]), 7 nM; at human NK1 receptor (setting [5]), 6060 nM; at human NK2 receptor (setting [6]), 9950 nM. For the same molecule, half-maximal inhibition at human NK-3 receptor [2] (IC50) required 7 nM.
As to `Cc1noc(-c2nnc3n2CCN(C(=O)c2ccc(-c4cccs4)cc2)[C@@H]3C)n1` [Compound 23, (R)-(8-methyl-3-(3-methyl-1,2,4-oxadiazol-5-yl)-5,6-dihydro-[1,2,4]triazolo[4,3-a]pyrazin-7(8H)-yl)(4-(thiophen-2-yl)phenyl)methanone], the inhibition at 10 µM was less than 10% at human NK1 receptor (read-out: NK1 % inhibition at 10 μM, for the racemate) and less than 25% on human NK2 receptor (read-out: NK2 % inhibition at 10 μM, for the racemate). Further, the inhibition constant (Ki) on human NK1 receptor (setting [5]) and on human NK2 receptor (setting [6]) was more than 10000 nM throughout.
For `Cc1coc(-c2nnc3n2CCN(C(=O)c2ccc(-c4ccccc4)cc2)[C@@H]3C)n1` [Compound 27, (R)-[1,1′-biphenyl]-4-yl(8-methyl-3-(4-methyloxazol-2-yl)-5,6-dihydro-[1,2,4]triazolo[4,3-a]pyrazin-7(8H)-yl)methanone], on human NK-3 receptor [1] (setting [3]), the Ki is 51 nM. Besides, inhibition at human NK-3 receptor [2] was half-maximal at 51 nM (IC50).
With `CCc1nc(-c2nnc3n2CCN(C(=O)c2ccc(-c4ccccc4)cc2)[C@@H]3C)cs1` [Compound 6, (R)-[1,1′-biphenyl]-4-yl(3-(2-ethylthiazol-4-yl)-8-methyl-5,6-dihydro-[1,2,4]triazolo[4,3-a]pyrazin-7(8H)-yl)methanone], the Ki at human NK-3 receptor [1] (setting [3]) came to 11 nM. Besides, at human NK-3 receptor [2], it took 10 nM to reach half-maximal inhibition (IC50).
Turning to `C[C@@H]1c2nnc(-c3coc(C4CC4)n3)n2CCN1C(=O)c1ccc(-c2cccs2)cc1` [Compound 15, (R)-(3-(2-cyclopropyloxazol-4-yl)-8-methyl-5,6-dihydro-[1,2,4]triazolo[4,3-a]pyrazin-7(8H)-yl)(4-(thiophen-2-yl)phenyl)methanone], at human NK-3 receptor [1] (setting [3]), the Ki was 11 nM. The molecule also displayed an IC50 against human NK-3 receptor [2] of 9 nM.
Turning to `Cc1nc(-c2nnc3n2CCN(C(=O)c2ccc(-c4cccs4)cc2)[C@@H]3C)c(C)s1` [Compound 16, (R)-(3-(2,5-dimethylthiazol-4-yl)-8-methyl-5,6-dihydro-[1,2,4]triazolo[4,3-a]pyrazin-7(8H)-yl)(4-(thiophen-2-yl)phenyl)methanone], at human NK-3 receptor [1] (setting [3]), the Ki worked out at 32 nM. This molecule also registered an IC50 on human NK-3 receptor [2] of 30 nM.
For the molecule `CC(C)c1nc(-c2nnc3n2CCN(C(=O)c2ccc(-c4cccs4)cc2)C3)co1` [Compound 14, (3-(2-isopropyloxazol-4-yl)-5,6-dihydro-[1,2,4]triazolo[4,3-a]pyrazin-7(8H)-yl)(4-(thiophen-2-yl)phenyl)methanone], the Ki on human NK-3 receptor [1] (setting [3]) is 42 nM. At human NK-3 receptor [2], half-maximal inhibition (IC50) required 47 nM.
On to `Cc1csc(-c2nnc3n2CCN(C(=O)c2ccc(-c4ccccc4)cc2)[C@@H]3C)n1` [Compound 20, (R)-[1,1′-biphenyl]-4-yl(8-methyl-3-(4-methylthiazol-2-yl)-5,6-dihydro-[1,2,4]triazolo[4,3-a]pyrazin-7(8H)-yl)methanone], for which the Ki on human NK-3 receptor [1] (setting [3]) worked out at 12 nM. The molecule also returned an IC50 at human NK-3 receptor [2] of 11 nM.
Take `CC(C)c1nsc(-c2nnc3n2CCN(C(=O)c2ccc(-c4cccs4)cc2)[C@@H]3C)n1` [Compound 25, (R)-(3-(3-isopropyl-1,2,4-thiadiazol-5-yl)-8-methyl-5,6-dihydro-[1,2,4]triazolo[4,3-a]pyrazin-7(8H)-yl)(4-(thiophen-2-yl)phenyl)methanone]: the Ki on human NK-3 receptor [1] (setting [3]) was 3 nM. On human NK-3 receptor [2], this molecule returned an IC50 of 3 nM.
On to `Cc1csc(-c2nnc3n2CCN(C(=O)c2ccc(-c4ccccc4)cc2)C3)n1` [Compound 21, [1,1′-biphenyl]-4-yl(3-(4-methylthiazol-2-yl)-5,6-dihydro-[1,2,4]triazolo[4,3-a]pyrazin-7(8H)-yl)methanone], for which the Ki on human NK-3 receptor [1] (setting [3]) was 38 nM. For the same molecule, at human NK-3 receptor [2], the IC50 was 33 nM.
Regarding `C=Cc1nc(-c2nnc3n2CCN(C(=O)c2ccc(-c4cccs4)cc2)C3)cs1` [Compound 9, (4-(thiophen-2-yl)phenyl)(3-(2-vinylthiazol-4-yl)-5,6-dihydro-[1,2,4]triazolo[4,3-a]pyrazin-7(8H)-yl)methanone], the Ki at human NK-3 receptor [1] (setting [3]) amounted to 19 nM. The molecule also displayed an IC50 at human NK-3 receptor [2] of 18 nM.
For `Cc1cccc(-c2nnc3n2CCN(C(=O)c2ccc(-c4ccccc4)cc2)[C@@H]3C)n1` [Compound 29, (R)-[1,1′-biphenyl]-4-yl(8-methyl-3-(6-methylpyridin-2-yl)-5,6-dihydro-[1,2,4]triazolo[4,3-a]pyrazin-7(8H)-yl)methanone], in that order: 23 nM and 18 nM.
Regarding `Cc1coc(-c2nnc3n2CCN(C(=O)c2ccc(-c4cccs4)cc2)[C@@H]3C)n1` [Compound 26, (R)-(8-methyl-3-(4-methyloxazol-2-yl)-5,6-dihydro-[1,2,4]triazolo[4,3-a]pyrazin-7(8H)-yl)(4-(thiophen-2-yl)phenyl)methanone], on human NK-3 receptor [2], the IC50 came out at 12 nM.
Take `Cc1nc(-c2nnc3n2CCN(C(=O)c2ccc(-c4ccccc4)cc2)[C@@H]3C)co1` [Compound 12, (R)-[1,1′-biphenyl]-4-yl(8-methyl-3-(2-methyloxazol-4-yl)-5,6-dihydro-[1,2,4]triazolo[4,3-a]pyrazin-7(8H)-yl)methanone]: the Ki on human NK-3 receptor [1] (setting [3]) worked out at 70 nM. This molecule gave an IC50 against human NK-3 receptor [2] of 58 nM.
Regarding `CC(C)c1nc(-c2nnc3n2CCN(C(=O)c2ccc(-c4cccs4)cc2)C3)cs1` [Compound 18, (3-(2-isopropylthiazol-4-yl)-5,6-dihydro-[1,2,4]triazolo[4,3-a]pyrazin-7(8H)-yl)(4-(thiophen-2-yl)phenyl)methanone], at human NK-3 receptor [1] (setting [3]), the Ki came to 20 nM. The same molecule showed an IC50 against human NK-3 receptor [2] of 10 nM.
Consider `Cc1cccc(-c2nnc3n2CCN(C(=O)c2ccc(-c4cccs4)cc2)[C@@H]3C)n1` [Compound 30, (R)-(8-methyl-3-(6-methylpyridin-2-yl)-5,6-dihydro-[1,2,4]triazolo[4,3-a]pyrazin-7(8H)-yl)(4-(thiophen-2-yl)phenyl)methanone], for which the Ki on human NK-3 receptor [1] (setting [3]) was 10 nM; at human NK-3 receptor [1] (setting [4]), 10 nM; at human NK1 receptor (read-out: NK1 Ki, CHO membranes, 2 nM [3H] substance P), 17200 nM; at human NK2 receptor (read-out: NK2 Ki, CHO membranes, 0.1 nM [125I]-Neurokinin A), 5930 nM. In addition, on human NK-3 receptor [2], the IC50 came out at 11 nM.
As for `CC(C)c1nc(-c2nnc3n2CCN(C(=O)c2ccc(-c4cccs4)cc2)[C@@H]3C)co1` [Compound 13, (R)-(3-(2-isopropyloxazol-4-yl)-8-methyl-5,6-dihydro-[1,2,4]triazolo[4,3-a]pyrazin-7(8H)-yl)(4-(thiophen-2-yl)phenyl)methanone], the Ki at human NK-3 receptor [1] (setting [3]) amounted to 3 nM. On human NK-3 receptor [2], this molecule displayed an IC50 of 2 nM.
The corresponding values for `Cc1nc(-c2nnc3n2CCN(C(=O)c2ccc(-c4ccccc4)cc2)[C@@H]3C)cs1` [Compound 2, (R)-[1,1′-biphenyl]-4-yl(8-methyl-3-(2-methylthiazol-4-yl)-5,6-dihydro-[1,2,4]triazolo[4,3-a]pyrazin-7(8H)-yl)methanone] are 26 nM and 28 nM.
For the molecule `C=Cc1nc(-c2nnc3n2CCN(C(=O)c2ccc(-c4ccccc4)cc2)[C@@H]3C)cs1` [Compound 8, (R)-[1,1′-biphenyl]-4-yl(8-methyl-3-(2-vinylthiazol-4-yl)-5,6-dihydro-[1,2,4]triazolo[4,3-a]pyrazin-7(8H)-yl)methanone], the Ki on human NK-3 receptor [1] (setting [3]) was 7 nM. Moreover, the IC50 at human NK-3 receptor [2] is 7 nM.
Turning to `Cc1nc(-c2nnc3n2CCN(C(=O)c2ccc(-c4cccs4)cc2)[C@@H]3C)sc1C` [Compound 22, (R)-(3-(4,5-dimethylthiazol-2-yl)-8-methyl-5,6-dihydro-[1,2,4]triazolo[4,3-a]pyrazin-7(8H)-yl)(4-(thiophen-2-yl)phenyl)methanone], at human NK-3 receptor [1] (setting [3]), the Ki was found to be 21 nM. The IC50 at human NK-3 receptor [2] amounted to 21 nM; against hERG channel, 12000 nM.
In the case of `CCc1nc(-c2nnc3n2CCN(C(=O)c2ccc(-c4cccs4)cc2)[C@@H]3C)cs1` [Compound 5, (R)-(3-(2-ethylthiazol-4-yl)-8-methyl-5,6-dihydro-[1,2,4]triazolo[4,3-a]pyrazin-7(8H)-yl)(4-(thiophen-2-yl)phenyl)methanone], the Ki on human NK-3 receptor [1] (setting [3]) came to 5 nM. In addition, half-maximal inhibition against human NK-3 receptor [2] (IC50) was put at 3 nM.
As to `C=Cc1nc(-c2nnc3n2CCN(C(=O)c2ccc(-c4cccs4)cc2)[C@@H]3C)cs1` [Compound 7, (R)-(8-methyl-3-(2-vinylthiazol-4-yl)-5,6-dihydro-[1,2,4]triazolo[4,3-a]pyrazin-7(8H)-yl)(4-(thiophen-2-yl)phenyl)methanone], the inhibitory constant (Ki) on human NK-3 receptor [1] (setting [3]) is 4 nM. Also, half-maximal inhibition against human NK-3 receptor [2] (IC50) was put at 3 nM.

The term Ki denotes a measure of affinity in units of concentration, obtained from inhibition or displacement. In general, IC50 refers to the concentration needed to halve the response being measured. The term inhibition denotes the change of the read-out against control, counted positive when it falls.
